# Laboratory results from patent publication US3951955A, “Penicillins substituted with heterocyclic groups” (Sumitomo Chemical Company, Limited, priority 1970, dated 1976).
# Counter-ions that a name gives are not always drawn.
# Legend:
# Assay in all cases: minimal inhibitory concentration, agar dilution method (in vitro)
# Format in all cases: cell-based
# [1] = test system: Pseudomonas aeruginosa 104
# From the text: (§1) When determined according to the agar dilution method, the penicillins [I] afford the minimal inhibitory concentrations as shown in the following Table 1: […]
# Escherichia coli NIHJ = test system: Escherichia coli NIHJ
# From the text: as §1
# [2] = test system: Staphylococcus aureus 209P
# From the text: as §1
# Proteus miravilis 2425 = test system: Proteus miravilis 2425
# From the text: as §1
# [3] = test system: Klebsiella pneumoniae 602
# From the text: as §1
SMILES,MIC [1],MIC (Escherichia coli NIHJ),MIC [2],MIC (Proteus miravilis 2425),MIC [3]
CCOC(=O)Oc1c(C(=O)NC(C(=O)N[C@@H]2C(=O)N3[C@@H]2SC(C)(C)[C@@H]3C(=O)O)c2ccccc2)cnc2cc(Cl)ccc12 (stereo partly drawn) [Example 16],3.13 µg/mL,6.25 µg/mL,0.2 µg/mL,3.13 µg/mL,0.39 µg/mL
"CCOC(=O)Oc1c(C(=O)N[C@@H](C(=O)N[C@@H]2C(=O)N3[C@@H]2SC(C)(C)[C@@H]3C(=O)O)c2ccccc2)cnc2nc(C)ccc12 [Example 5, D-(-)-α-(7-methyl-4-ethoxycarbonyloxy-1,8-naphthyridine-3-carbonamido)-benzylpenicillin]",12.5 µg/mL,12.5 µg/mL,0.78 µg/mL,6.25 µg/mL,
CSc1ccc2ncc(C(=O)NC(C(=O)N[C@@H]3C(=O)N4[C@@H]3SC(C)(C)[C@@H]4C(=O)O)c3ccccc3)c(O)c2n1 (stereo partly drawn) [Example 11],3.13 µg/mL,6.25 µg/mL,0.1 µg/mL,3.13 µg/mL,
"Cc1ccc2c(O)c(C(=O)N[C@@H](C(=O)N[C@@H]3C(=O)N4[C@@H]3SC(C)(C)[C@@H]4C(=O)O)c3ccccc3)cnc2n1 [Example 4, D-(-)-α-(7-methyl-4-hydroxy-1,8-naphthyridine-3-carbonamido)-benzylpenicillin potassium salt]",6.25 µg/mL,12.5 µg/mL,0.78 µg/mL,6.25 µg/mL,
COc1c(C(=O)NC(C(=O)N[C@@H]2C(=O)N3[C@@H]2SC(C)(C)[C@@H]3C(=O)O)c2ccccc2)cnc2cc3c(cc12)OCO3 (stereo partly drawn) [Example 10],25 µg/mL,12.5 µg/mL,0.2 µg/mL,25 µg/mL,
"CC(C)(C)C(=O)Oc1c(C(=O)N[C@@H](C(=O)N[C@@H]2C(=O)N3[C@@H]2SC(C)(C)[C@@H]3C(=O)O)c2ccccc2)cnc2ccccc12 [Example 6, D-(-)-α-(4-pivaloyloxyquinoline-3-carbonamido)-benzylpenicillin]",3.13 µg/mL,6.25 µg/mL,0.1 µg/mL,1.56 µg/mL,
CC1(C)S[C@@H]2[C@H](NC(=O)C(NC(=O)c3cnc4cc5c(cc4c3S)OCO5)c3ccccc3)C(=O)N2[C@H]1C(=O)O (stereo partly drawn) [Example 9],3.13 µg/mL,6.25 µg/mL,0.2 µg/mL,3.13 µg/mL,
CN(C)c1ccc2ncc(C(=O)NC(C(=O)N[C@@H]3C(=O)N4[C@@H]3SC(C)(C)[C@@H]4C(=O)O)c3ccccc3)c(O)c2n1 (stereo partly drawn) [Example 12],3.13 µg/mL,6.25 µg/mL,0.1 µg/mL,3.13 µg/mL,
CCSc1c(C(=O)NC(C(=O)N[C@@H]2C(=O)N3[C@@H]2SC(C)(C)[C@@H]3C(=O)O)c2ccccc2)cnc2cc3c(cc12)OCO3 (stereo partly drawn) [Example 8],25 µg/mL,12.5 µg/mL,0.2 µg/mL,12.5 µg/mL,

# The remaining lines, values ahead:
MIC [1],MIC (Escherichia coli NIHJ),MIC [2],MIC (Proteus miravilis 2425),MIC [3],SMILES
3.13 µg/mL,1.56 µg/mL,0.78 µg/mL,1.56 µg/mL,3.13 µg/mL,Cc1ccc2ncc(C(=O)NC(C(=O)NC3C(=O)N4C3SC(C)(C)C4C(=O)O)c3ccccc3)c(O)c2n1 (stereo not drawn) [Example 32]
3.13 µg/mL,0.78 µg/mL,0.78 µg/mL,1.56 µg/mL,0.78 µg/mL,CN(C)c1ncc2ncc(C(=O)NC(C(=O)NC3C(=O)N4C3SC(C)(C)C4C(=O)O)c3ccccc3)c(O)c2n1 (stereo not drawn) [Example 51]
6.25 µg/mL,6.25 µg/mL,1.56 µg/mL,3.13 µg/mL,3.13 µg/mL,COc1nc(OC)c2ncc(C(=O)NC(C(=O)NC3C(=O)N4C3SC(C)(C)C4C(=O)O)c3ccccc3)c(O)c2n1 (stereo not drawn) [Example 54]
3.13 µg/mL,3.13 µg/mL,0.78 µg/mL,3.13 µg/mL,3.13 µg/mL,COc1nc(OC)c2c(O)c(C(=O)NC(C(=O)N[C@@H]3C(=O)N4[C@@H]3SC(C)(C)[C@@H]4C(=O)O)c3ccccc3)cnc2n1 (stereo partly drawn) [Example 26]
3.13 µg/mL,3.13 µg/mL,1.56 µg/mL,3.13 µg/mL,3.13 µg/mL,CCCCN(CCCC)c1ccc2ncc(C(=O)NC(C(=O)NC3C(=O)N4C3SC(C)(C)C4C(=O)O)c3ccccc3)c(O)c2n1 (stereo not drawn) [Example 42]
3.13 µg/mL,3.13 µg/mL,1.56 µg/mL,3.13 µg/mL,1.56 µg/mL,CN(C)c1ncc2c(O)c(C(=O)NC(C(=O)NC3C(=O)N4C3SC(C)(C)C4C(=O)O)c3ccccc3)cnc2n1 (stereo not drawn) [Example 46]
6.25 µg/mL,3.13 µg/mL,1.56 µg/mL,6.25 µg/mL,6.25 µg/mL,CC1(C)SC2C(NC(=O)C(NC(=O)c3cnc4cnc(O)nc4c3O)c3ccccc3)C(=O)N2C1C(=O)O (stereo not drawn) [Example 53]
12.5 µg/mL,6.25 µg/mL,1.56 µg/mL,3.13 µg/mL,3.13 µg/mL,COc1cc2ncc(C(=O)NC(C(=O)NC3C(=O)N4C3SC(C)(C)C4C(=O)O)c3ccccc3)c(O)c2cn1 (stereo not drawn) [Example 60]
6.25 µg/mL,12.5 µg/mL,0.39 µg/mL,3.16 µg/mL,,CC1(C)S[C@@H]2[C@H](NC(=O)C(NC(=O)c3cnc4cc(C(F)(F)F)ccc4c3O)c3cccs3)C(=O)N2[C@H]1C(=O)O (stereo partly drawn) [Example 25]
